In US8580764B2, “Combinational compositions and methods for treatment of cancer” (ArQule, Inc., priority 2010, dated 2013):
Like-named read-outs stand apart in the source and are kept apart here.

Columns and labels:
cancer cells [1] = conditions: cited from earlier work
cancer cells [2] = experiment: Cell cycle analysis of dosing regimen A (FIG. 8); assay type: cell-based; conditions: dosing regimen A of FIG. 3
Procedure: (§1) Cells were plated on day 0.

cell cycle check point = experiment: Activation of cell cycle check point during dosing regimen A (FIG. 9); assay type: cell-based; conditions: dosing regimen A of FIG. 3
Procedure: as §1

c-Met = target: T1, c-Met (Homo sapiens, UniProt P08581); conditions: c-Met expressing cancer cell lines; cited from earlier work
T1 construct: Exposure of c-Met expressing cancer cell lines; endogenous in cells

human tumors = conditions: multiple mouse xenograft efficacy studies; cited from earlier work

T1 sequence (P08581 25-1390): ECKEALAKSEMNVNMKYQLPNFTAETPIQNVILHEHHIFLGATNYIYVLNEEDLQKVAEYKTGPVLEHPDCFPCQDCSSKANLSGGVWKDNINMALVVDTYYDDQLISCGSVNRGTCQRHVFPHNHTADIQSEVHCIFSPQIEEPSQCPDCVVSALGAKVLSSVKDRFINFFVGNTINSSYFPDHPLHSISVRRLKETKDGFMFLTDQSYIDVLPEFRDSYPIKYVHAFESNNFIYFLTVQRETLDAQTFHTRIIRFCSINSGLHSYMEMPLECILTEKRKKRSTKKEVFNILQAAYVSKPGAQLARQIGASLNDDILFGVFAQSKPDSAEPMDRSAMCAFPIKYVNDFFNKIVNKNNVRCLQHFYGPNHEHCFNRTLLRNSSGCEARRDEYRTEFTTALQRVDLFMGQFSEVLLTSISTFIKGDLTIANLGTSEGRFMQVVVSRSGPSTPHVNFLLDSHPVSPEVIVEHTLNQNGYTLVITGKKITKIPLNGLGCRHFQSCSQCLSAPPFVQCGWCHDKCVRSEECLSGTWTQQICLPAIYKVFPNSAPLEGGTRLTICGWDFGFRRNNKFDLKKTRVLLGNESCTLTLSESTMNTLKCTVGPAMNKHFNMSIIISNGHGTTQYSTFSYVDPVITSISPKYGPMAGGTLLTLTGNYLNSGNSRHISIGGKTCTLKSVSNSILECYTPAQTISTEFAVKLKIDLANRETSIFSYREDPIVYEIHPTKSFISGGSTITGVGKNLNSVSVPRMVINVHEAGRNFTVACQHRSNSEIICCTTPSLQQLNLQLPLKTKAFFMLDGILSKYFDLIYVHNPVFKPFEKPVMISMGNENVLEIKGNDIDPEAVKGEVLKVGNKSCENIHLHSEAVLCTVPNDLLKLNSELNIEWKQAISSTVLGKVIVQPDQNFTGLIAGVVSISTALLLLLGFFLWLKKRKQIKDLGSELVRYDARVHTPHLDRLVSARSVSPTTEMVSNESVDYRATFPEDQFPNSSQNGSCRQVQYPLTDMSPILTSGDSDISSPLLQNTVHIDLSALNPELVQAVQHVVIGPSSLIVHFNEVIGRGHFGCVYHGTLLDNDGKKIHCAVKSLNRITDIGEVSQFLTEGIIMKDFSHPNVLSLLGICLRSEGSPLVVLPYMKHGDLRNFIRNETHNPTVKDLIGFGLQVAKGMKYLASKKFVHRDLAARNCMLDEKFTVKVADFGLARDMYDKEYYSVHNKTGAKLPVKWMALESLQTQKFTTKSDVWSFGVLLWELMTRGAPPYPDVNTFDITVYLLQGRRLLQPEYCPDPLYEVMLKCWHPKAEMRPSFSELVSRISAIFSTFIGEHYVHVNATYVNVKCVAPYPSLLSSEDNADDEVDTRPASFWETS

In the case of `Nc1ccn([C@@H]2O[C@H](CO)[C@@H](O)C2(F)F)c(=O)n1` [gemcitabine], the cell cycle arrest (cancer cells [1]) is listed as “arrest cancer cells in G1/S phase”, the cell cycle arrest (cancer cells [2]) is listed as “S-phase arrest” and the “activation of cell cycle check point” value (cell cycle check point) is listed as “activation of cell cycle check point”.

For `O=C1NC(=O)[C@@H](c2cn3c4c(cccc24)CCC3)[C@@H]1c1c[nH]c2ccccc12` [Agent A, (−)-trans-3-(5,6-dihydro-4H-pyrrolo[3,2,1-ij]quinolin-1-yl)-4-(1H-indol-3-yl)pyrrolidine-2,5-dione], the “phospho-c-Met levels and cell death” value (c-Met) is listed as “decrease in phospho-c-Met levels with eventual apoptotic cell death”, the “growth of human tumors” value (human tumors) is listed as “inhibited the growth of human tumors” and the cell cycle arrest (cancer cells [2]) is listed as “G2/M arrest”.
